Structures can show the parent of a compound that is named as a salt. Blank lines part the entries; values can stand above or below the molecule they belong to.
How the values were obtained:
[1] = target: T1, D4 receptor (Homo sapiens, UniProt P21917); assay: D4 receptor binding affinity, Pfizer laboratories; conditions: for D2/D4: Table 2, ratio of Ki values, Pfizer laboratories data
T1 sequence (P21917 1-419): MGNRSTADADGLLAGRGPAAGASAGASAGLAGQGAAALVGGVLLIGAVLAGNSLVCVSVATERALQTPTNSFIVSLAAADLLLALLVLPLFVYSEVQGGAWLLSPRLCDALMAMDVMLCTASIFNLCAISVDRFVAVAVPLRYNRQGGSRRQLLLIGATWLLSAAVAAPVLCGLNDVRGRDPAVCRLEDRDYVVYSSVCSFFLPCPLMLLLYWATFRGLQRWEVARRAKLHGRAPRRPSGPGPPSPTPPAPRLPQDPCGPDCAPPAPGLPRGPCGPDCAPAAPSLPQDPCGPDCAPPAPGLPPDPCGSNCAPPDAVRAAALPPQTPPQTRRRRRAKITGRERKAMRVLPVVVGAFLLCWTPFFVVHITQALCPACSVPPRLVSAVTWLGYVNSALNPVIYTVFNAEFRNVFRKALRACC

[2] = target: T2, D2 receptor (Homo sapiens, UniProt P14416); assay: D2 receptor binding affinity, NIMH-PDSP
T2 sequence (P14416 whole entry): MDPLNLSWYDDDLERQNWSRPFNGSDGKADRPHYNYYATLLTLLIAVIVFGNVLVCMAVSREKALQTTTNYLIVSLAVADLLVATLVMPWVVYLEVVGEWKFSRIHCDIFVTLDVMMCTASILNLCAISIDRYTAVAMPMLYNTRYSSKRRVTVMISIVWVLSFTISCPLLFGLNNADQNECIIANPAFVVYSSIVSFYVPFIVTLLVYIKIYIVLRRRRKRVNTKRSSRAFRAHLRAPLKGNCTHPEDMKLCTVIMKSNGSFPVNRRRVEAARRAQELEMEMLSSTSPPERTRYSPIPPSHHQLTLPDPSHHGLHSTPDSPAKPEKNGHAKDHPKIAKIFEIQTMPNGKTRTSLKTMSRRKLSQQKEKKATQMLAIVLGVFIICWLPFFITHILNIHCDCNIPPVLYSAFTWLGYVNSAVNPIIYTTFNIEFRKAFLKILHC

[3] = target: D3 receptor (Homo sapiens, UniProt P35462); assay: D3 receptor binding affinity, NIMH-PDSP
D3 receptor, sequence (P35462 whole entry): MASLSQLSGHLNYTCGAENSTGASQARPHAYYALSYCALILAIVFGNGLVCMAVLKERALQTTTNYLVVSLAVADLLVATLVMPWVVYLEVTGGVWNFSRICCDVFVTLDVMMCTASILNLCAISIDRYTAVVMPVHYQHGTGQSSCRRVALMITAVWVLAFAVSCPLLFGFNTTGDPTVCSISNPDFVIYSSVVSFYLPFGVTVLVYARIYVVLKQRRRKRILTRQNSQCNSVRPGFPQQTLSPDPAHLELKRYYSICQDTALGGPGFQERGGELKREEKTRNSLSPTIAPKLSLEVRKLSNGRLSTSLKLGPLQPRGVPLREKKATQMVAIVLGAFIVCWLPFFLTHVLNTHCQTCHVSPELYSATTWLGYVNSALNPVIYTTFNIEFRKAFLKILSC

[4] = target: T1, D4 receptor; assay: D4 receptor binding affinity, NIMH-PDSP
[5] = target: T2, D2 receptor; assay: D2 receptor binding affinity, Pfizer laboratories; conditions: same assay procedure in the same laboratory
[6] = target: T1, D4 receptor; conditions: cloned human D2-like receptors; ref [11]; cited from earlier work
[7] = target: T2, D2 receptor; conditions: cloned human D2-like receptors; ref [11]; cited from earlier work
[8] = Table 2, NIMH-PDSP data, MPA = Missed primary assay threshold of 50% inhibition

Structure (SMILES): Clc1ccc(N2C3CCC2CN(Cc2c[nH]c4ncccc24)CC3)cc1 (stereo not drawn) [Compound 9, 3-[(1H-pyrrolo[2,3-b]pyridin-3-yl)methyl]-9-(4-chlorophenyl)-3,9-diazabicyclo[4.2.1]nonane]
Ki [2]: > 10000 nM
Ki [3]: 335 ± 178 nM
D2/D4 [4]: >17
Ki [4]: 584 ± 115 nM

Structure (SMILES): Clc1ccc(N2CCCN(Cc3c[nH]c4ncccc34)CC2)cc1 [Compound 7, 3-{[4-(4-chlorophenyl)-1,4-diazepan-1-yl]methyl}-1H-pyrrolo[2,3-b]pyridine, HCl]
fold lower affinity for the D4 receptor than compound 6 ([1]; same assay procedure in the same laboratory): 3 fold
fold lower affinity for the D2 receptor than compound 6 [5]: 7 fold

Structure (SMILES): O=C(CCCN1CCN(c2ccc(Cl)cc2)CC1)c1ccc(F)cc1 [Compound 1]
D4 selectivity [6]: 15 fold
fold D2 potency conferred by butyrophenone (compound 1 vs L745,870) [7]: < 4 fold

Second part, the molecule after the results:

D2/D4 [1]: 0.33
Structure (SMILES): O=C(CCCN1CC2CC1N(c1ccc(Cl)cc1)C2)c1ccc(F)cc1 (stereo not drawn) [Compound 10]

D2/D4 [1]: 21
Structure (SMILES): c1cnc(N2CCN(Cc3c[nH]c4ncccc34)CC2)nc1 [Compound 15, 3-{(4-(pyrimidin-2-yl)piperazin-1-yl)methyl}-1H-pyrrolo[2,3-b]pyridine]

Ki ± SEM, D2 [2, 8]: MPA
Ki ± SEM, D3 [3, 8]: MPA
Structure (SMILES): OC1(c2ccc(Cl)cc2)CCN(Cc2c[nH]c3ncccc23)C1 (stereo not drawn) [Compound 13, 3-(4-chlorophenyl)-1-(1H-pyrrolo[2,3-b]pyridin-3-ylmethyl)pyrrolidin-3-ol]

From PMC2719767 (Bioorganic & medicinal chemistry, 2008)
